The data set can be described thus: activity coefficient (dimensionless); of the first substance listed, at infinite dilution; xn = mol fraction of the nth substance listed. The following applies: 101 kPa, Liquid, Chromatography, x1 = 0.

Numbers after ± are expanded uncertainties.

`CCCCCCCCCC` [decane] + CCCCCC[n+]1ccn(C)c1.FC(F)(F)C(F)(F)[P-](F)(F)(F)(C(F)(F)C(F)(F)F)C(F)(F)C(F)(F)F: the activity coefficient reads like this: (312.8 K) 22.7 ± 1.6; (332.85 K) 19 ± 1.3; (354.65 K) 15.3 ± 1.
Take `CCC(=O)CC` [pentan-3-one] + CCCCn1cc[n+](C)c1.O=S(=O)([N-]S(=O)(=O)C(F)(F)C(F)(F)F)C(F)(F)C(F)(F)F: the activity coefficient is, setting by setting: (322.55 K) 0.624 ± 0.043; (342.75 K) 0.656 ± 0.045; (362.65 K) 0.695 ± 0.047.
For the compound `CCCO` [propan-1-ol] + CCCCCC[n+]1ccn(C)c1.FC(F)(F)C(F)(F)[P-](F)(F)(F)(C(F)(F)C(F)(F)F)C(F)(F)C(F)(F)F, the activity coefficient was found to be 2.47 ± 0.17 (312.8 K), 1.96 ± 0.13 (332.85 K) and 1.47 ± 0.096 (354.65 K).
On the same counts, the results for `C#CCCCCC` [1-heptyne] + CCCCCC[n+]1ccn(C)c1.FC(F)(F)C(F)(F)[P-](F)(F)(F)(C(F)(F)C(F)(F)F)C(F)(F)C(F)(F)F are 2.54 ± 0.17, 2.5 ± 0.17 and 2.32 ± 0.16.
On the same counts, the results for `ClC(Cl)(Cl)Cl` [tetrachloromethane] + CCCCCC[n+]1ccn(C)c1.FC(F)(F)C(F)(F)[P-](F)(F)(F)(C(F)(F)C(F)(F)F)C(F)(F)C(F)(F)F are 2.19 ± 0.15, 2.08 ± 0.14 and 1.94 ± 0.13.
For the compound `CCC[N+](=O)[O-]` [1-nitropropane] + CCCCCC[n+]1ccn(C)c1.FC(F)(F)C(F)(F)[P-](F)(F)(F)(C(F)(F)C(F)(F)F)C(F)(F)C(F)(F)F, the activity coefficient runs as follows: (312.8 K) 0.452 ± 0.036; (332.85 K) 0.451 ± 0.036; (354.65 K) 0.436 ± 0.035.
Consider `CCC=O` [propanal] + CCn1cc[n+](C)c1.CS(=O)(=O)[O-], for which the activity coefficient is, setting by setting: (312.55 K) 2.76 ± 0.19; (322.45 K) 2.71 ± 0.18; (332.45 K) 2.65 ± 0.18.
Take `CC1CCCC1` [methylcyclopentane] + CCCCCC[n+]1ccn(C)c1.FC(F)(F)C(F)(F)[P-](F)(F)(F)(C(F)(F)C(F)(F)F)C(F)(F)C(F)(F)F: the activity coefficient (312.8 K) stood at 4.58 ± 0.31, the activity coefficient (332.85 K) was determined as 4.09 ± 0.28 and the activity coefficient (354.65 K) was 3.52 ± 0.24.
Regarding `CCCCCCCCCCCCCC` [tetradecane] + CCCCn1cc[n+](C)c1.O=S(=O)([N-]S(=O)(=O)C(F)(F)C(F)(F)F)C(F)(F)C(F)(F)F, the activity coefficient (322.55 K) was determined as 153 ± 11, the activity coefficient (342.75 K) worked out at 113 ± 7.7 and the activity coefficient (362.65 K) is 91.5 ± 6.3.
With `CO` [methanol] + CCCCCC[n+]1ccn(C)c1.FC(F)(F)C(F)(F)[P-](F)(F)(F)(C(F)(F)C(F)(F)F)C(F)(F)C(F)(F)F, the activity coefficient was 1.57 ± 0.1 (312.8 K), 2.01 ± 0.14 (332.85 K) and 1.58 ± 0.1 (354.65 K).
On the same counts, the results for `CCCC(C)=O` [pentan-2-one] + CCCCCC[n+]1ccn(C)c1.FC(F)(F)C(F)(F)[P-](F)(F)(F)(C(F)(F)C(F)(F)F)C(F)(F)C(F)(F)F are 0.271 ± 0.03, 0.298 ± 0.031 and 0.311 ± 0.031.
For `CCCCCCC` [heptane] + CCCCCC[n+]1ccn(C)c1.FC(F)(F)C(F)(F)[P-](F)(F)(F)(C(F)(F)C(F)(F)F)C(F)(F)C(F)(F)F, the activity coefficient reads like this: (312.8 K) 8.84 ± 0.6; (332.85 K) 7.73 ± 0.53; (354.65 K) 6.62 ± 0.45.
For `C=O` [methanal] + CCn1cc[n+](C)c1.CS(=O)(=O)[O-], the activity coefficient (312.55 K) is 0.615 ± 0.043, the activity coefficient (322.45 K) was found to be 0.656 ± 0.045 and the activity coefficient (332.45 K) is 0.691 ± 0.046.
As for `CCCCCCC` [heptane] + CCCCCCCCCCn1cc[n+](CCCCCCCCCC)c1C.O=S(=O)([N-]S(=O)(=O)C(F)(F)F)C(F)(F)F, the activity coefficient (323.1 K) worked out at 2.53 ± 0.17, the activity coefficient (333.15 K) was 2.11 ± 0.14 and the activity coefficient (343.15 K) turned out to be 2.08 ± 0.14.
Turning to `ClCCl` [dichloromethane] + CCCCCC[n+]1ccn(C)c1.FC(F)(F)C(F)(F)[P-](F)(F)(F)(C(F)(F)C(F)(F)F)C(F)(F)C(F)(F)F, the activity coefficient was found to be 0.66 ± 0.045 (312.8 K), 0.699 ± 0.047 (332.85 K) and 0.707 ± 0.047 (354.65 K).
On to `ClC(Cl)Cl` [trichloromethane] + CCCCn1cc[n+](C)c1.O=S(=O)([N-]S(=O)(=O)C(F)(F)C(F)(F)F)C(F)(F)C(F)(F)F, for which the activity coefficient by setting is: (322.55 K) 0.613 ± 0.043; (342.75 K) 0.74 ± 0.049; (362.65 K) 0.79 ± 0.051.
On to `CCO` [ethanol] + CCCCCCCCCCn1cc[n+](CCCCCCCCCC)c1C.O=S(=O)([N-]S(=O)(=O)C(F)(F)F)C(F)(F)F, for which the activity coefficient runs as follows: (323.1 K) 1.27 ± 0.082; (333.15 K) 1.15 ± 0.073; (343.15 K) 1.04 ± 0.065.
Consider `CCN(CC)CC` [triethylamine] + CCn1cc[n+](C)c1.CS(=O)(=O)[O-], for which the activity coefficient is, setting by setting: (312.55 K) 8.32 ± 0.57; (322.45 K) 14.3 ± 0.98; (332.45 K) 18.8 ± 1.3.
For `c1ccsc1` [thiophene] + CCCCCCCCCCn1cc[n+](CCCCCCCCCC)c1C.O=S(=O)([N-]S(=O)(=O)C(F)(F)F)C(F)(F)F, the activity coefficient is 0.422 ± 0.035 (323.1 K), 0.423 ± 0.035 (333.15 K) and 0.424 ± 0.035 (343.15 K).
Turning to `CCCCCCCCCCCCC` [tridecane] + CCn1cc[n+](C)c1.CS(=O)(=O)[O-], the activity coefficient (312.55 K) is 3380 ± 230, the activity coefficient (322.45 K) came to 3280 ± 230 and the activity coefficient (332.45 K) came to 3070 ± 210.
Take `c1ccsc1` [thiophene] + CCCCCC[n+]1ccn(C)c1.FC(F)(F)C(F)(F)[P-](F)(F)(F)(C(F)(F)C(F)(F)F)C(F)(F)C(F)(F)F: the activity coefficient is, setting by setting: (312.8 K) 0.577 ± 0.041; (332.85 K) 0.602 ± 0.042; (354.65 K) 0.604 ± 0.042.
As for `CCCC(C)=O` [pentan-2-one] + CCCCCCCCCCn1cc[n+](CCCCCCCCCC)c1C.O=S(=O)([N-]S(=O)(=O)C(F)(F)F)C(F)(F)F, the activity coefficient is 0.397 ± 0.034 (323.1 K), 0.404 ± 0.034 (333.15 K) and 0.407 ± 0.034 (343.15 K).
Turning to `CCC(C)CC` [3-methylpentane] + CCCCCC[n+]1ccn(C)c1.FC(F)(F)C(F)(F)[P-](F)(F)(F)(C(F)(F)C(F)(F)F)C(F)(F)C(F)(F)F, the activity coefficient runs as follows: (312.8 K) 5.63 ± 0.38; (332.85 K) 5.05 ± 0.34; (354.65 K) 4.43 ± 0.3.
As for `C1COCCO1` [1,4-dioxane] + CCn1cc[n+](C)c1.CS(=O)(=O)[O-], the activity coefficient was determined as 2.67 ± 0.18 (312.55 K), 2.67 ± 0.18 (322.45 K) and 2.66 ± 0.18 (332.45 K).
As for `CC1CCCC1` [methylcyclopentane] + CCCCn1cc[n+](C)c1.O=S(=O)([N-]S(=O)(=O)C(F)(F)C(F)(F)F)C(F)(F)C(F)(F)F, the activity coefficient (322.55 K) was determined as 6.85 ± 0.47, the activity coefficient (342.75 K) was 6.05 ± 0.41 and the activity coefficient (362.65 K) came out at 5.79 ± 0.4.
`C#CCCCCC` [1-heptyne] + CCCCn1cc[n+](C)c1.O=S(=O)([N-]S(=O)(=O)C(F)(F)C(F)(F)F)C(F)(F)C(F)(F)F: the activity coefficient came to 3.91 ± 0.27 (322.55 K), 3.76 ± 0.26 (342.75 K) and 3.58 ± 0.24 (362.65 K).
As for `CO` [methanol] + CCn1cc[n+](C)c1.CS(=O)(=O)[O-], the activity coefficient runs as follows: (312.55 K) 0.249 ± 0.03; (322.45 K) 0.254 ± 0.03; (332.45 K) 0.264 ± 0.03.
As for `C=O` [methanal] + CCCCCC[n+]1ccn(C)c1.FC(F)(F)C(F)(F)[P-](F)(F)(F)(C(F)(F)C(F)(F)F)C(F)(F)C(F)(F)F, the activity coefficient came out at 0.096 ± 0.03 (312.8 K), 0.134 ± 0.029 (332.85 K) and 0.146 ± 0.029 (354.65 K).
As for `CCCO` [propan-1-ol] + CCCCn1cc[n+](C)c1.O=S(=O)([N-]S(=O)(=O)C(F)(F)C(F)(F)F)C(F)(F)C(F)(F)F, the activity coefficient by setting is: (322.55 K) 1.99 ± 0.14; (342.75 K) 1.62 ± 0.11; (362.65 K) 1.35 ± 0.088.
On to `C#CCCCC` [1-hexyne] + CCCCn1cc[n+](C)c1.O=S(=O)([N-]S(=O)(=O)C(F)(F)C(F)(F)F)C(F)(F)C(F)(F)F, for which the activity coefficient (322.55 K) stood at 2.86 ± 0.2, the activity coefficient (342.75 K) turned out to be 2.73 ± 0.19 and the activity coefficient (362.65 K) amounted to 2.64 ± 0.18.
As for `CCCCCCCCCCC` [undecane] + CCCCCC[n+]1ccn(C)c1.FC(F)(F)C(F)(F)[P-](F)(F)(F)(C(F)(F)C(F)(F)F)C(F)(F)C(F)(F)F, the activity coefficient is, setting by setting: (312.8 K) 31 ± 2.1; (332.85 K) 25.5 ± 1.7; (354.65 K) 19.9 ± 1.4.
On the same counts, the results for `Cc1cccc(C)c1` [1,3-dimethylbenzene] + CCCCCC[n+]1ccn(C)c1.FC(F)(F)C(F)(F)[P-](F)(F)(F)(C(F)(F)C(F)(F)F)C(F)(F)C(F)(F)F are 0.939 ± 0.059, 0.997 ± 0.062 and 1.01 ± 0.063.
As to `c1ccsc1` [thiophene] + CCCCn1cc[n+](C)c1.O=S(=O)([N-]S(=O)(=O)C(F)(F)C(F)(F)F)C(F)(F)C(F)(F)F, the activity coefficient runs as follows: (322.55 K) 0.977 ± 0.061; (342.75 K) 0.973 ± 0.061; (362.65 K) 0.981 ± 0.062.
On the same counts, the results for `CCN(CC)CC` [triethylamine] + CCCCn1cc[n+](C)c1.O=S(=O)([N-]S(=O)(=O)C(F)(F)C(F)(F)F)C(F)(F)C(F)(F)F are 2.73 ± 0.19, 3.61 ± 0.25 and 3.27 ± 0.22.
As for `CCC=O` [propanal] + CCCCCC[n+]1ccn(C)c1.FC(F)(F)C(F)(F)[P-](F)(F)(F)(C(F)(F)C(F)(F)F)C(F)(F)C(F)(F)F, the activity coefficient reads like this: (312.8 K) 0.274 ± 0.03; (332.85 K) 0.283 ± 0.03; (354.65 K) 0.285 ± 0.031.

(Values after the NIST ThermoML archive (doi:10.1021/je200195q).)
